Measurements: patent US9604974B2, “Compounds as modulator of JAK-STAT pathway, methods and applications thereof” (UNIVERSITY OF MYSORE, priority 2015, dated 2017)

Test system: phospho-STAT3 (Y705)
Test: Western blot of constitutive phospho-STAT3 (Y705) in HepG2
Format: cell-based, human
Conditions: HepG2, 6 hours
Protocol: FIG. 2 depicts the suppression of phospho-STAT3 by compound 1 (CIMO) in a dose dependent manner [A]. HepG2 cells (5×10^5/mL) are treated with the indicated concentrations of CIMO for 6 hours, after which whole-cell extracts are prepared and resolved on SDS-PAGE gel, electrotransferred onto nitrocellulose membrane, and probed for phospho-STAT3. The same blot is stripped and reprobed with STAT3 antibody to verify equal protein loading. […] HepG2 cells (5×10^5/mL) are treated with the indicated concentrations of AG490 for about 6 hours, after which Western Blotting is done as described for [A]. [C] depicts the suppression of phospho-STAT3 levels by Compound 1 (CIMO) in a time-dependent manner. HepG2 cells (5×10^5/mL) are treated with 10 μMol/L CIMO for the indicated times, after which Western blotting is done as described for [A]. [D] depicts that compound 1 (CIMO) has no effect on phospho-STAT3 (Ser-727) and STAT3 protein expression. HepG2 cells (5×10^5/mL) are treated with 10 μMol/L CIMO for the indicated times, after which Western Blotting is done as described for [A] and membrane is probed using antibodies against phospho-STAT3 (Ser-727) and STAT3. […] HepG2 cells (1×10^5/mL) are incubated with or without 10 μMol/L CIMO for about 6 hours and then analyzed for the intracellular distribution of STAT3 by immunocytochemistry. The same slides are counterstained for nuclei with Hoechst (50 ng/mL) for about 5 minutes and analyzed under an fluorescencemicroscope. […] HepG2 cells (5×10^5/mL) are treated with 10 μMol/L CIMO, after which whole-cell extracts are prepared, resolved in SDS-PAGE, electrotransferred onto nitrocellulose membrane, and probed with phospho-Src, phospho-JAK1 and phospho-JAK2 antibodies. The same blots are stripped and reprobed with Src, JAK1 and JAK2 antibodies to verify equal protein loading. [G] depicts the suppression of STAT3 DNA binding ability by Compound 1 (CIMO) in HepG2 cells. HepG2 cells are treated with 10 μMol/L CIMO for the indicated time, nuclear extracts are prepared, and 5 μg of the nuclear extract protein is used for ELISA-based DNA-binding assay.
CIMO is tested towards the inhibition of constitutive activation of STAT3 in HepG2 cells by Western Blotting via antibodies recognising phospho-STAT3 (Y705). For detection of phospho-proteins, CIMO treated whole-cell extracts are lysed in lysis buffer [20 mM Tris (pH 7.4), 250 mM NaCl, 2 mM Ethylenediaminetetraacetic acid (pH 8.0), 0.1% Triton-X-100, 0.01 mg/ml aprotinin, 0.005 mg/ml leupeptin, 0.4 mM phenylmethanesulfonylfluoride, and 4 mM NaVO4). Lysates are then spun at 14,000 rpm for about 10 minutes to remove insoluble material and resolved on SDS gel. After electrophoresis, the proteins are electrotransferred to a nitrocellulose membrane, blocked with 5% non-fat milk, and probed with various antibodies (1:1000) overnight at about 4° C. The blot is washed, exposed to HRP-conjugated secondary antibodies for about 1 hour, and finally examined by chemiluminescence (ECL; GE Healthcare, Little Chalfont, Buckinghamshire, UK).

**Q.** With `N#C/C(=C/c1ccc(O)c(O)c1)C(=O)NCc1ccccc1` [AG490, reference compound] as the compound, how does the “concentration of maximum inhibition of phospho-STAT3” value read?
**A.** The value was 200 µM.

Same assay, conditions: HepG2, Western blot, dose and time course

**Q.** Which “levels of phospho-STAT3 (Y705)” value does the source give for `N#C/C(=C/c1ccc(O)c(O)c1)C(=O)NCc1ccccc1` [AG490, reference compound] here?
**A.** The value was “decreases the phosphorylation of STAT3 in a dose-dependent manner”.

Same assay, conditions: HepG2, with 10 μMol/L CIMO, about 4 hours

**Q.** For sodium pervanadate [reference compound], which “effect on CIMO-induced inhibition of STAT3 activation” value is on record?
**A.** The value was “prevents CIMO-induced inhibition of STAT3 activation”.

Test system: HepG2 cells
Test: MTT anti-proliferative assay, HepG2
Format: cell-based
Conditions: Homo sapiens; HepG2 cells after 72 hours, MTT
Protocol: The anti-proliferative activity of Formula I compounds are studied on HepG2 cells using MTT assay. Briefly, the cells (2.5×10^4/ml) are incubated in triplicate in a 96-well plate in the presence or absence of different concentrations of compounds in a final volume of 0.2 ml up to 72 hours at 37° C. Thereafter, 20 μl MTT solution (5 mg/ml in PBS) is added to each well. After 2 hours of incubation at 37° C., 0.1 ml lysis buffer (20% SDS, 50% dimethyl-formamide) is added; incubation is continued overnight at 37° C.; and the optical density (OD) at 570 nm is measured by Tecan plate reader.

**Q.** Which IC50 does the source give for `CCCCc1nc(Cl)c(C2NCC(c3ccc(OC)cc3)C3(CCCCC3)O2)n1Cc1ccc(-c2ccccc2C#N)cc1` (stereo not drawn) [Compound 3, 2-(2-butyl-5-chloro-3-(4-(2-cyanophenyl)1-benzyl)-imidazol-4-yl)-5-(4-methoxy-phenyl)-1-oxa-3-aza spiro(5,5) undecane] here?
**A.** The IC50 was 14.3 µM.

**Q.** Which IC50 does the source give for `COc1ccc(C2CNC(c3c(C)[nH]c4ccccc34)OC23CCCCC3)cc1` (stereo not drawn) [Compound 9, 2-(2-methylindyl)-5-(4-methoxy-phenyl)-1-oxa-3-aza spiro(5,5) undecane] here?
**A.** The IC50 was over 50 µM.

**Q.** `COc1ccc(C2CNC(c3ccc(N(C)C)cc3)OC23CCCCC3)cc1` (stereo not drawn) [Compound 13, 2-(4-dimethylaminophenyl)-5-(4-methoxy-phenyl)-1-oxa-3-aza spiro(5,5) undecane] was tested. Which IC50 did it give?
**A.** The IC50 was over 50 µM.

**Q.** Which IC50 does the source give for `CCCCc1nc(Cl)c(C2NCC(c3ccc(OC)cc3)C3(CCCCC3)O2)[nH]1` (stereo not drawn) [Compound 2, 2-(2-butyl-5-chloro-3H-imidazol-4-yl)-5-(4-methoxy-phenyl)-1-oxa-3-aza spiro(5,5) undecane] here?
**A.** Its IC50 is 38.7 µM.

**Q.** `COc1ccc(C2CNC(c3ccc(Br)cc3)OC23CCCCC3)cc1` (stereo not drawn) [Compound 4, 2-(4-Bromophenyl)-5-(4-methoxy-phenyl)-1-oxa-3-aza spiro(5,5) undecane] was tested. Which IC50 did it give?
**A.** The IC50 was 37.1 µM.

**Q.** `CCCCc1nc(Cl)c(C2NCC(c3ccc(OC)cc3)C3(CCCCC3)O2)n1Cc1ccc(Oc2ccccc2)cc1` (stereo not drawn) [Compound 7] was tested. Which IC50 did it give?
**A.** The IC50 was 15.8 µM.

**Q.** How did the IC50 turn out when `COc1ccc(C2CNC(c3ccc4c(c3)CCO4)OC23CCCCC3)cc1` (stereo not drawn) [Compound 11, 2-(2,3-Dihydro-benzofuran-5-yl)-5-(4-methoxy-phenyl)-1-oxa-3-aza-spiro[5.5]undecane] was run?
**A.** Its IC50 is over 50 µM.

**Q.** How did the IC50 turn out when `COc1ccc(C2CN(Cc3ccc(-c4ccccc4C#N)cc3)C(c3c(Cl)cccc3Cl)OC23CCCCC3)cc1` (stereo not drawn) [Compound 12] was run?
**A.** Its IC50 is over 50 µM.

**Q.** With `COc1ccc(C2CNC(c3c(-c4ccccc4)[nH]c4ccccc34)OC23CCCCC3)cc1` (stereo not drawn) [Compound 5, 2-(2-phenylindyl)-5-(4-methoxy-phenyl)-1-oxa-3-aza spiro(5,5) undecane] as the compound, how does the IC50 read?
**A.** The IC50 was 9.8 µM.

**Q.** Which IC50 does the source give for `COc1ccc(C2CNC(c3coc4ccccc4c3=O)OC23CCCCC3)cc1` (stereo not drawn) [Compound 8, 3-[5-(4-Methoxy-phenyl)-1-oxa-3-aza-spiro[5.5]undec-2-yl]-chromen-4-one] here?
**A.** The IC50 was 28.8 µM.

**Q.** Which IC50 does the source give for `COc1ccc(C2CNC(c3c(Cl)cccc3Cl)OC23CCCCC3)cc1` (stereo not drawn) [Compound 10, 2-(2,6-dichlorophenyl)-5-(4-methoxy-phenyl)-1-oxa-3-aza spiro(5,5) undecane] here?
**A.** The IC50 was 42.4 µM.

**Q.** Which IC50 does the source give for `COc1ccc(C2CNC(c3c[nH]c4ccccc34)OC23CCCCC3)cc1` (stereo not drawn) [Compound 6, 2-(indyl)-5-(4-methoxy-phenyl)-1-oxa-3-aza spiro(5,5) undecane] here?
**A.** Its IC50 is 28.5 µM.
